Laboratory results from patent US20170073337A1, “DIHYDROTHIAZINE AND DIHYDROOXAZINE DERIVATIVES HAVING BACE1 INHIBITORY ACTIVITY” (Shionogi & Co., Ltd., priority 2014, published 2017).
In brackets after ≈: the same amount, converted by molar mass. Where two headings read alike, the source gives them in different places. One block for each compound: values may come before it.

How the values were obtained:
[1] = target: T1, Recombinant human BACE1 (Homo sapiens, UniProt P56817); assay: Assay of BACE1 inhibitory activity: 384-well; assay type: biochemical; conditions: Assay format 384-well
T1 construct: purchased R&D Systems
T1 sequence (P56817 46-501): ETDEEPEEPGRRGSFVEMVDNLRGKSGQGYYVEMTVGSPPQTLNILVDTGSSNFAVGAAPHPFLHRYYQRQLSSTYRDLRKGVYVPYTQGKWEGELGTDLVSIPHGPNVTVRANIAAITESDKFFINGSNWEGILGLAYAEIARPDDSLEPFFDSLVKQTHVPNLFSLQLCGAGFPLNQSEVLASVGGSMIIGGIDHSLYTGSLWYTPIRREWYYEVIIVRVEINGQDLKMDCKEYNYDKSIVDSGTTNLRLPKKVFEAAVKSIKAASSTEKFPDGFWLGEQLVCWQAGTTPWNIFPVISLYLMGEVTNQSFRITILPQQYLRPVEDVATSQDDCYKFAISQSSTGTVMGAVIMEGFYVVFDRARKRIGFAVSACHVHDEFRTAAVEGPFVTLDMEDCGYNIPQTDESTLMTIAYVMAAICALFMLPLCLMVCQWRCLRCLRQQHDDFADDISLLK
Experimental: 5 μL of substrate peptide solution (Biotin-XSEVNLDAEFRHDSGC-Eu: X=ε-amino-n-capronic acid, Eu=Europium eryplate) was added to each well of 384-well plate (a black plate: Corning), and after addition of 0.1 μl of the compound of the present invention (DMSO solution) and 5 μl of Recombinant human BACE1 (R&D Systems), the reaction mixture was incubated at 25° C. for 2 hours. The substrate peptide was synthesized by reacting Cryptate TBPCOOH mono SMP (CIS bio international) with Biotin-XSEVNLDAEFRHDSGC (Peptide Institute, Inc.).
After the incubation for reaction, 10 μl of 8.0 μg/ml Streptavidin-XL665 (CIS bio International) dissolved in phosphate buffer (150 mmol/L K2HPO4-KH2PO4, pH 7.0, 0.008% Triton X-100, 0.8 mol/L KF) was added to each well and left stand at 25° C. for 30 minutes.

[2] = system: Aβ production in neuroblastoma SH-SY5Y cells (SH/APPwt); assay: β-amyloid (Aβ) production inhibitory effect in cell: 384-well; assay type: cell-based; conditions: Homo sapiens, Assay format 384-well
Experimental: Neuroblastoma SH-SY5Y cells (SH/APPwt) with human wild-type β-APT excessively expressed therein were prepared at 4×10^5 cells/mL, and 50 μl portions thereof were inoculated into each well of a 384-well culture plate (Corning) added 0.5 μl of the test compound of the present invention (DMSO solution). The final DMSO concentration was 1%, and the amount of the cell culture was 50 μl. After the incubation was performed for 21 hours from the cell seeding, 5 μl of the culture supernatant was collected from each fraction. The amount of the Aβ in each fraction was measured.
The Aβ amount was measured as follows. 5 μl of a homogeneous time resolved fluoresrenee (HTRF) measurement reagent (Amyloid β1-40 peptide; CIS bio international) and 5 μl of the culture supernatant were put into a 384′well plate (a black plate: Corning) and mixed with each other, and then left standing overnight at 4° C. while the light was shielded. Then, the fluorescence intensity (620 nm and 665 nm) was measured with EnViston (Perkin Elmer life sciences).

[3] = target: T2, CYP1A2 (Homo sapiens, UniProt P05177); assay: CYP inhibition test (CYP1A2); assay type: in vitro ADME; conditions: pooled human liver microsomes; 7-ethoxyresorufin O-deethylation
T2 construct: The commercially available pooled human liver microsomes are used as an enzyme resource; from tissue; host or cells: pooled human liver microsomes
T2 sequence (P05177 1-516): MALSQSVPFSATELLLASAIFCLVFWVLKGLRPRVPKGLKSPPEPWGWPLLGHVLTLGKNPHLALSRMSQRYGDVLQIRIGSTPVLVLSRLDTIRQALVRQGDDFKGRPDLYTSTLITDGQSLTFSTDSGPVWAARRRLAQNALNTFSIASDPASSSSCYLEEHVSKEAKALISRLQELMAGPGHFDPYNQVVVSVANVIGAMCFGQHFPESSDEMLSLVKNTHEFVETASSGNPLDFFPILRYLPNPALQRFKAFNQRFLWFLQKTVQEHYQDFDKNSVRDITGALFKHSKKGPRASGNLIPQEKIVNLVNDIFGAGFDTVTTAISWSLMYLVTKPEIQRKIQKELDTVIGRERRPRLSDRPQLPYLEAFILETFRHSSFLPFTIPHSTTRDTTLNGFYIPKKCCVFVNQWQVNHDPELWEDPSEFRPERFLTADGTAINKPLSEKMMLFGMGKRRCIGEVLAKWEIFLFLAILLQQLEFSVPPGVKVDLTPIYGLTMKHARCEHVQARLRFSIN
Description: (§1) The CYP inhibition test is a test to assess the inhibitory effect of a compound of the present invention towards typical substrate metabolism reactions on CYP enzymes in human liver microsomes. The marker reactions on human main five CYP enzymes (CYP1A2, 2C9, 2C19, 2D6, and 3A4) are used as follows: 7-ethoxyresorufin O-deethylation (CYP1A2), tolbutamide methyl-hydroxylation (CYP2C9), mephenytoin 4′-hydroxylation (CYP2C19), dextromethorphan O-demethylation (CYP2D6), and terfenadine hydroxylation (CYP3A4). The commercially available pooled human liver microsomes are used as an enzyme resource.
(§2) The reaction conditions were as follows: substrate, 0.5 μmol/L ethoxyresorufin (CYP1A2), 100 μmol/L tolbutamide (CYP2C9), 50 μmol/L, S-mephenytoin (CYP2C19), 5 μmol/L dextromethorphan (CYP2D6), 1 μmol/L terfenadine (CYP3A4): reaction time, 15 minutes: reaction temperature, 37° C.; enzyme, pooled human liver microsomes 0.2 mg protein/mL; concentrations of the compound of the present invention, 1, 5, 10, 20 μmol/L (four points).
(§3) Five kinds of substrates, human liver microsomes, and a compound solution of the present invention in […] Hepes buffer were added to a 96-well plate at the composition as described above as a reaction solution. NADPH as a cofactor was added to this 96-well plate in order to initiate metabolism reactions. After the incubation at 37° C.for […], a methanol/acetonitrile=1/1 (v/v) solution was added to stop the reaction. After the centrifugation at 3000 rpm for 15 minutes, resorufin (CYP1A2 metabolite) in the supernatant was quantified by a fluorescent plate reader, and hydroxytolbutamide (CYP2C9 metabolite), 4′-hydroxymephenytoin (CYP2C19 metabolite), dextrorphan (CYP2D6 metabolite), and terfenadine alcohol metabolite (CYP3A4 metabolite) in the supernatant were quantified by LC/MS/MS.
(§4) The sample adding DMSO to a reaction system instead of compound of the present invention solution was adopted as a control (100%) because DMSO was used as a solvent to dissolve a compound of the present invention. Remaining activity (%) was calculated at each concentration of a compound of the present invention, and IC50 value was calculated by reverse presumption by a logistic model using a concentration and an inhibition rate.

[4] = target: T3, CYP2C9 (Homo sapiens, UniProt P11712); assay: CYP inhibition test (CYP2C9); assay type: in vitro ADME; conditions: pooled human liver microsomes; tolbutamide methyl-hydroxylation
T3 construct: The commercially available pooled human liver microsomes are used as an enzyme resource; from tissue; host or cells: pooled human liver microsomes
T3 sequence (P11712 whole entry): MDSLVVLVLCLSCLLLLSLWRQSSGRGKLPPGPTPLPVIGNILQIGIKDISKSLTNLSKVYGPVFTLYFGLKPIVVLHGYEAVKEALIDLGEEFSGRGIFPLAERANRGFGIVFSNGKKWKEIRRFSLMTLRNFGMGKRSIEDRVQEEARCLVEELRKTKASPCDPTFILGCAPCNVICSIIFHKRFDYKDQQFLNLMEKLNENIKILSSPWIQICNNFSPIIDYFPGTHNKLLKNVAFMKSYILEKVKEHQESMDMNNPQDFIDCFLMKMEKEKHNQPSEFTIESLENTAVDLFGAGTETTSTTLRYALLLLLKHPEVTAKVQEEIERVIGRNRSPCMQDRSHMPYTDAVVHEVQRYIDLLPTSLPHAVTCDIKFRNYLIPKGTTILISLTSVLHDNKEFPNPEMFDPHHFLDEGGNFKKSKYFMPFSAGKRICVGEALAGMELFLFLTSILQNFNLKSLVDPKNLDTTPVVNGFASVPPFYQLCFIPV
Description: as §1, §2, §3, §4

[5] = target: T4, CYP2C19 (Homo sapiens, UniProt P33261); assay: CYP inhibition test (CYP2C19); assay type: in vitro ADME; conditions: pooled human liver microsomes; mephenytoin 4′-hydroxylation
T4 construct: The commercially available pooled human liver microsomes are used as an enzyme resource; from tissue; host or cells: pooled human liver microsomes
T4 sequence (P33261 whole entry): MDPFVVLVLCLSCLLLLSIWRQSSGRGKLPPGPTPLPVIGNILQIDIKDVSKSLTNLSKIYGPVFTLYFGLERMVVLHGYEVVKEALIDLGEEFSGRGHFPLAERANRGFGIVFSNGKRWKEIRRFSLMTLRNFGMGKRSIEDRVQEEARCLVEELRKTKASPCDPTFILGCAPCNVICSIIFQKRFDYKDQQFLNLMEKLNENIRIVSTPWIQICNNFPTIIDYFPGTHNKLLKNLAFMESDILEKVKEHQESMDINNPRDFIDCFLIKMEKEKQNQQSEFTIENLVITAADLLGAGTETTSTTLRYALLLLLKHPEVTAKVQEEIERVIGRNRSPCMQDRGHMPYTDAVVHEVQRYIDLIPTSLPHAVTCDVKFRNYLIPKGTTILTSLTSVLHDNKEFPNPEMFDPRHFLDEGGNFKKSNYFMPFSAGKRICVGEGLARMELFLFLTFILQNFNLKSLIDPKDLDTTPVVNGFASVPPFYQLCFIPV
Description: as §1, §2, §3, §4

[6] = Solubility test; assay type: physicochemical; conditions: for solubility kinetic at 1 h: kinetic from dmso stock; for solubility kinetic at 16 h: solubility in JP 2nd fluid B, 1% DMSO, *2: shaken for 1 hour at room temperature
Experimental: A 10 mmol/L solution of the compound was prepared with DMSO, and 2 μL of the compound of the present invention solution was added, respectively, to 198 μL of JP 1st fluid (water was added to 2.0 g of sodium chloride and 7.0 ml, of hydrochloric acid to reach 1000 mL) and JP 2nd fluid (See Table 4). The mixture was left standing for 16 hours at 25° C. or shaken for 1 hour at ruom temperature, and the mixture was vacuum-filtered. The […] was ten or one hundred-fold diluted with metbanol/water=1/1 (v/v) or MeCN/MeOH/H2O(=1/1/2), and the compound concent ration in the filtrate was measured with LC/MS or solid phase extraction (SPE)/MS by the absolute calibration method.

[7] = target: T5, human ether-a-go-go related gene (hERG) channel (Homo sapiens, UniProt Q12809); assay: hERG test; assay type: cell-based; conditions: % inhibition of IKr tail peak current at 3 uM; CHO cells expressing hERG
T5 construct: expressed in transfected cells; host or cells: CHO cells
T5 sequence (Q12809 whole entry): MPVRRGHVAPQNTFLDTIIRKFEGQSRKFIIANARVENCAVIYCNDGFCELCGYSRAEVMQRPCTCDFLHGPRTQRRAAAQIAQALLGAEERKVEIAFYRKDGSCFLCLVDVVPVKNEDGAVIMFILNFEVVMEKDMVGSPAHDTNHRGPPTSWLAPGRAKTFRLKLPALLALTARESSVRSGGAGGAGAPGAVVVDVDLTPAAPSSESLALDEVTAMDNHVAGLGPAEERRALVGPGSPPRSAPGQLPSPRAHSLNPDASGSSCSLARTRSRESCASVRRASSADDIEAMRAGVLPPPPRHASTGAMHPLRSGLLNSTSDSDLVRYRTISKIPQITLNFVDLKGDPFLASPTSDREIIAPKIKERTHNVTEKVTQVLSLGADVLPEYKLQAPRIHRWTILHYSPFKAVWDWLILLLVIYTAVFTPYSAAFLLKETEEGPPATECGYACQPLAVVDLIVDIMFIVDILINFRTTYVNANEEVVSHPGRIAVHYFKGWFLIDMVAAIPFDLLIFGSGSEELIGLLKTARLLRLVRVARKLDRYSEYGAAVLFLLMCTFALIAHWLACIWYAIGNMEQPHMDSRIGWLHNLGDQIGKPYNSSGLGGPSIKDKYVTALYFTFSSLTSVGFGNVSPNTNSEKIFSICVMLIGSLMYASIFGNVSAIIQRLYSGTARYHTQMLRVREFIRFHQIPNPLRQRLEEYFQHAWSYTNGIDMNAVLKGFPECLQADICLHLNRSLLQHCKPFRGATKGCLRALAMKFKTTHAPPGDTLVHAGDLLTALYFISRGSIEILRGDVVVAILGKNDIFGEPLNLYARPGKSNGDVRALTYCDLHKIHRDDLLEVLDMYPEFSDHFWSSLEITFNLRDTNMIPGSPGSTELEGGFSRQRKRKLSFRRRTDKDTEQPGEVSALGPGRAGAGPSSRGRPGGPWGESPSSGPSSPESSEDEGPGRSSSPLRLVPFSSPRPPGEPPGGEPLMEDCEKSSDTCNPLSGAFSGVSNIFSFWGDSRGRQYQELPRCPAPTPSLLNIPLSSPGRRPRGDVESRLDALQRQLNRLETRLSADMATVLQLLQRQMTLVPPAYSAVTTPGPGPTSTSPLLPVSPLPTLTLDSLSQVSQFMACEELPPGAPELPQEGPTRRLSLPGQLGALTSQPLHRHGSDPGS
Description: For the purpose of assessing risk of an electrocardiogram QT interval prolongation, effects on delayed rectifier K+ current (IKr), which plays an important role in the ventricular repolarization process of the compound of the present invention, was studied using CHO cells expressing human ether-a-go-go related gene (hERG) channel.
A cell was retained at a membrane potential of […] by whole cell patch clamp method using an automated patch clamp system (QPatch:Sophion Bioscience A/S). After application of leak potential at −50 mV, IKr induced by depolarization pulse stimulation at +20 mV for 2 seconds and, further, repolarization pulse stimulation at −50 mV for 2 seconds was recorded.

[8] = target: T6, CYP3A4 (Homo sapiens, UniProt P08684); assay: CYP inhibition test (CYP3A4); assay type: in vitro ADME; conditions: pooled human liver microsomes; terfenadine hydroxylation
T6 construct: The commercially available pooled human liver microsomes are used as an enzyme resource; from tissue; host or cells: pooled human liver microsomes
T6 sequence (P08684 whole entry): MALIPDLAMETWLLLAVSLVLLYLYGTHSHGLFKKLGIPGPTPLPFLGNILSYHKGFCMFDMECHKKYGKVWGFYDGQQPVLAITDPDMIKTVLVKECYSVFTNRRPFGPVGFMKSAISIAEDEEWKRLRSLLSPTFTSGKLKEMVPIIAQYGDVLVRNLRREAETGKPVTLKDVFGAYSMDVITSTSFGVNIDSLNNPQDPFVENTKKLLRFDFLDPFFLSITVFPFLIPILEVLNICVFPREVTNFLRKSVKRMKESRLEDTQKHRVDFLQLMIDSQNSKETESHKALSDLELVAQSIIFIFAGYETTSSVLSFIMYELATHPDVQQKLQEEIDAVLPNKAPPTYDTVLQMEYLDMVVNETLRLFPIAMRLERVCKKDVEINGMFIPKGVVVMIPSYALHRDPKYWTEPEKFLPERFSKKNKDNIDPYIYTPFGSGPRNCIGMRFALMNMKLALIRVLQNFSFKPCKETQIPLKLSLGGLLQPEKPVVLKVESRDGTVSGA
Description: as §1, §2, §3, §4

[9] = Metabolic stability test; assay type: in vitro ADME; conditions: human liver microsomes, 37° C., 30 minutes, NADPH
Experimental: Using a commercially available pooled human liver microsomes, a compound of the present invention was reacted for a constant time, a remaining rate was calculated by comparing a reacted sample and an unreacted sample, thereby, a degree of metabolism in liver was assessed.
A reaction was performed (oxidative reaction) at 37° C. for 0 minute or 30 minutes in the presence of 1 mmol/L NADPH in 0.2 mL of a buffer (60 mmol/L Tris-HCl pH 7.4, 150 mmol/L potassium chloride, 10 mmol/L magnesium chloride) containing 0.5 mg protein/mL of human liver microsomes. After the reaction, 50 μL of the reaction solution was added to 100 μL of a methanol/acetonltrile=1/1 (v/v), mixed and centrifuged at 3000 rpm for 15 minutes. The compound of the present invention in the supernatant was quantified by LC/MS/MS or solid phase extraction (SPE)/MS, and a remaining amount of the compound of the present invention after the reaction area calculated, letting a compound amount at 0 minute reaction time to be 100%.

[10] = target: T7, CYP2D6 (Homo sapiens, UniProt P10635); assay: CYP inhibition test (CYP2D6); assay type: in vitro ADME; conditions: pooled human liver microsomes; dextromethorphan O-demethylation
T7 construct: The commercially available pooled human liver microsomes are used as an enzyme resource; from tissue; host or cells: pooled human liver microsomes
T7 sequence (P10635 whole entry): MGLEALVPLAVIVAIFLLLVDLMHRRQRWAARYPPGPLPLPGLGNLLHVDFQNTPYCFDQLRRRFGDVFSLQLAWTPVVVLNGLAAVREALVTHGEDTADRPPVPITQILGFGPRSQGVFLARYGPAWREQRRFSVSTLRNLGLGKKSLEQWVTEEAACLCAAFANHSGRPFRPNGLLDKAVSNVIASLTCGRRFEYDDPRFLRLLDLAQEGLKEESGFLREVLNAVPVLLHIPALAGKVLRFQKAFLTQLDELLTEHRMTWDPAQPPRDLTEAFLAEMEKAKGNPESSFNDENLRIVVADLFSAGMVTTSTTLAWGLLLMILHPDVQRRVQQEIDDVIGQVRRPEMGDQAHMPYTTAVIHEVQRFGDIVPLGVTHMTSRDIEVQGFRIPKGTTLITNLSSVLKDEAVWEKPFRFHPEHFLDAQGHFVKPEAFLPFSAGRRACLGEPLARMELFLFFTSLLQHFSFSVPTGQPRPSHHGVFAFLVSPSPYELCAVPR
Description: as §1, §2, §3, §4

[11] = JP 1st fluid, pH 1.2, simulated gastric fluid, read-out: JP1
[12] = JP 2nd fluid B, pH 6.8, aqueous buffer, read-out: JP2_μM

Structure (SMILES): COCC(F)(F)[C@H]1OC(N)=N[C@](C)(c2cc(NC(=O)c3cnc(OC)cn3)ccc2F)[C@H]1F [Compound I-80]
IC50 [1]: 35.5 nM
IC50 [2]: 18 nM
IC50 [3]: ≥ 20000 nM
IC50 [4]: ≥ 10000 nM
IC50 [5]: ≥ 20000 nM
IC50 [8]: ≥ 10000 nM
solubility kinetic at 1 h [6, 11]: > 50 µM
solubility kinetic at 16 h ([6]; read-out: JP2_μM): >50 µM
hERG_3 uM_% [7]: 8.9%

Structure (SMILES): CCOc1cnc(C(=O)Nc2ccc(F)c([C@@]3(C)N=C(N)S[C@H](C)[C@@H]3F)c2)cn1 [Compound I-84]
IC50 [1]: 12.9 nM
IC50 [2]: 2.3 nM
IC50 [3]: ≥ 20000 nM
IC50 [5]: ≥ 20000 nM
solubility kinetic at 1 h [6, 11]: > 50 µM
solubility kinetic at 1 h [6, 12]: 49.4 µM (≈ 20.8 µg/mL)
hERG_3 uM_% [7]: 28.8%

Structure (SMILES): COc1ccc(C(=O)Nc2ccc(F)c([C@@]3(C)N=C(N)O[C@H](C(F)(F)C4CC4)[C@@H]3F)c2)nn1 [Compound I-95]
IC50 [1]: 23.5 nM
IC50 [2]: 450 nM
IC50 [3]: ≥ 20000 nM
IC50 [4]: ≥ 10000 nM
IC50 [5]: ≥ 20000 nM
IC50 [8]: ≥ 10000 nM
solubility kinetic at 1 h [6, 11]: > 50 µM
solubility kinetic at 16 h ([6]; read-out: JP2_μM): >50.0 µM
remaining % [9]: 105%

Structure (SMILES): Cc1cc(C#N)cnc1C(=O)Nc1ccc(F)c([C@@]2(C)N=C(N)O[C@H](C3(F)CC3)[C@@H]2F)c1 [Compound I-99]
IC50 [1]: 24.5 nM
IC50 [2]: 0.99 nM
IC50 [3]: ≥ 20000 nM
IC50 [4]: ≥ 10000 nM
IC50 [5]: ≥ 20000 nM
IC50 [10]: ≥ 10000 nM
IC50 [8]: ≥ 20000 nM
solubility kinetic at 1 h [6, 11]: > 50 µM
solubility kinetic at 16 h ([6]; read-out: JP2_μM): >50.0 µM
remaining % [9]: 89.4%

Now from value to compound, other results behind:

IC50 [1]: 13.7 nM
IC50 [2]: 0.68 nM
IC50 [3]: ≥ 20000 nM
IC50 [4]: ≥ 20000 nM
IC50 [5]: ≥ 20000 nM
solubility kinetic at 1 h [6, 11]: > 50 µM
solubility kinetic at 16 h ([6]; read-out: JP2_μM): >50 µM
Structure (SMILES): C[C@]1(c2cc(NC(=O)c3ccc(OCF)cn3)ccc2F)N=C(N)SCC12CC(F)(F)C2 [Compound I-58]
hERG_3 uM_% [7]: 58.6%

IC50 [1]: 15.4 nM
IC50 [2]: 1.3 nM
IC50 [3]: ≥ 20000 nM
IC50 [4]: ≥ 20000 nM
IC50 [5]: ≥ 20000 nM
IC50 [8]: ≥ 10000 nM
solubility kinetic at 1 h [6, 11]: > 50 µM
solubility kinetic at 16 h ([6]; read-out: JP2_μM): >50 µM
remaining % [9]: 71.5%
Structure (SMILES): C[C@]1(c2cc(NC(=O)c3ccc(F)cn3)ccc2F)N=C(N)SCC12CC(F)(F)C2 [Compound I-61]

IC50 [1]: 164 nM
IC50 [2]: 40 nM
IC50 [3]: ≥ 20000 nM
IC50 [4]: ≥ 20000 nM
IC50 [5]: ≥ 20000 nM
IC50 [10]: ≥ 20000 nM
IC50 [8]: ≥ 20000 nM
solubility kinetic at 1 h [6, 11]: > 50 µM
solubility kinetic at 1 h [6, 12]: 48.6 µM (≈ 19.5 µg/mL)
Structure (SMILES): C[C@@H]1SC(N)=N[C@](C)(c2cc(NC(=O)c3ccc(C#N)cn3)ccc2F)[C@@H]1F [Compound I-113]
